Measurements reported in patent US7674594B2, “Screening assay for inhibitors of TRPA1 activation by a lower alkyl phenol” (Redpoint Bio Corporation, priority 2006, dated 2010).
Entries after “also recorded” stand apart in the source; their conditions may differ. Where two headings read alike, the source gives them in different places. Each block holds one compound with its values, some of them ahead of it.

Assays:
hTRPA1 [1] = target: T1, hTRPA1 (Homo sapiens, UniProt O75762); experiment: Membrane potential dye fluorescence assay (FLIPR/FLEXstation), activation of hTRPA1 in transfected HEK293 cells; assay type: cell-based
T1 construct: The full length hTRPA1 was amplified by PCR with Kpn1 and Xho1 restriction enzyme sites; expressed in transfected cells; also transient transfection
Method: Once expression of TRPA1 was confirmed, 100 μl of the Blue or Red FMP dye (Molecular Devices) was added to each well of plates seeded with the transiently transfected cells. The plate was then incubated in a 37° C./5% CO2 incubator for 1 hour. The plate was read in a FLEXStation microplate reader (Molecular Devices) with an excitation of 530 nm and an emission of 565 nm. The fluorescence was monitored for 3 minutes upon exposure of the cells to a TRPA1 activating agent (e.g., cinnamaldehyde).
(§1) Samples in a 384-well plate were evaluated in a 5 minute assay on the FLIPR-Tetra™ (Molecular Devices). The assay was performed on a FLIPR™ using the excitation 510-545 nm and emission 565-625 nm filter sets. TRPA1-Transfected HEK cells, 15,000/well, were seeded overnight on poly-D-lysine coated 384 well plates in 20 μl media. Membrane Potential Assay Dye Red (Molecular Devices), 20 μl/well, was added and the plates incubated for 1 hour in a 37° C. and 5% CO2 incubator. The plates were then removed from the incubator and equilibrated to room temperature for 15 minutes before reading on the FLIPR®. The plates were read on the FLIPR® for a total of 3 minutes. Baseline fluorescence was obtained on the FLIPR® for 10 seconds followed by addition (typically 10 μl) of each agonist by the FLIPR® and read for an additional 2 minutes and 50 seconds.

hTRPA1 [2] = target: T1, hTRPA1; experiment: Modulation of agonist-activated TRPA1 in HEK293 cells expressing hTRPA1 (membrane potential dye); assay type: cell-based; details: for inhibition of thymol activated TRPA1 (in words): HEK293 cells
Method: as §1
Appropriate control experiments are performed and can easily be determined by the skilled artisan.
HEK293 cells and CHO cells expressing TRPA1 were subjected to the assay described in Example 2.

parental HEK293 cells = experiment: Membrane potential dye fluorescence assay in parental (non-transfected) HEK293 cells; assay type: cell-based, human; details: cells not expressing TRPA1
hTRPA1 [3] = target: T1, hTRPA1; experiment: siRNA knockdown of hTRPA1 in hTRPA1 HEK293 cells, membrane potential dye response; assay type: cell-based; details: increasing concentrations
Method: HEK293 cells were transiently transfected with one of siRNA for hTRPA1, and one of Silencer pre-designed and validated siRNA (Ambion), GAPDH or negative siRNA control. 1×10^6 hTRPA1 stably transfected HEK 293 cells were plated in 35 mm dishes overnight. The next day 10 μM of each siRNA was transfected into these cells using siPORT Amine (Ambion) and incubated overnight. The following day, transfected cells were trypsinized and seeded into 384-well black, clear bottom, poly-D-lysine plates (Corning) at a density of 15,000 cells/well in a 20 μl volume and incubated in a 37° C./5% CO2 incubator overnight.
The cells were then loaded with membrane potential sensitive dye and subjected to the fluorescence assay described in Example 2.

hTRPV1 = target: T2, hTRPV1 (Homo sapiens, UniProt Q8NER1); experiment: Membrane potential dye fluorescence assay, HEK293 cells expressing hTRPV1; assay type: cell-based
T2 construct: expressed in transfected cells
Method: as §1
(§2) HEK293 cells were stably transfected with one of hTRPA1, hTRPV1 or hTRPM5. CHO cells were stably transfected with one of hTRPM4B or TRPM5. Parental HEK293 and CHO cells were also used as a negative control.

hTRPM4B = target: T3, hTRPM4B (Homo sapiens, UniProt Q8TD43); experiment: Membrane potential dye fluorescence assay, CHO cells expressing hTRPM4B; assay type: cell-based
T3 construct: expressed in transfected cells
Method: as §1, §2

hTRPM5 = target: T4, hTRPM5 (Homo sapiens, UniProt Q9NZQ8); experiment: Membrane potential dye fluorescence assay, HEK293 or CHO cells expressing hTRPM5; assay type: cell-based
T4 construct: expressed in transfected cells
T4 sequence (Q9NZQ8 1-1165): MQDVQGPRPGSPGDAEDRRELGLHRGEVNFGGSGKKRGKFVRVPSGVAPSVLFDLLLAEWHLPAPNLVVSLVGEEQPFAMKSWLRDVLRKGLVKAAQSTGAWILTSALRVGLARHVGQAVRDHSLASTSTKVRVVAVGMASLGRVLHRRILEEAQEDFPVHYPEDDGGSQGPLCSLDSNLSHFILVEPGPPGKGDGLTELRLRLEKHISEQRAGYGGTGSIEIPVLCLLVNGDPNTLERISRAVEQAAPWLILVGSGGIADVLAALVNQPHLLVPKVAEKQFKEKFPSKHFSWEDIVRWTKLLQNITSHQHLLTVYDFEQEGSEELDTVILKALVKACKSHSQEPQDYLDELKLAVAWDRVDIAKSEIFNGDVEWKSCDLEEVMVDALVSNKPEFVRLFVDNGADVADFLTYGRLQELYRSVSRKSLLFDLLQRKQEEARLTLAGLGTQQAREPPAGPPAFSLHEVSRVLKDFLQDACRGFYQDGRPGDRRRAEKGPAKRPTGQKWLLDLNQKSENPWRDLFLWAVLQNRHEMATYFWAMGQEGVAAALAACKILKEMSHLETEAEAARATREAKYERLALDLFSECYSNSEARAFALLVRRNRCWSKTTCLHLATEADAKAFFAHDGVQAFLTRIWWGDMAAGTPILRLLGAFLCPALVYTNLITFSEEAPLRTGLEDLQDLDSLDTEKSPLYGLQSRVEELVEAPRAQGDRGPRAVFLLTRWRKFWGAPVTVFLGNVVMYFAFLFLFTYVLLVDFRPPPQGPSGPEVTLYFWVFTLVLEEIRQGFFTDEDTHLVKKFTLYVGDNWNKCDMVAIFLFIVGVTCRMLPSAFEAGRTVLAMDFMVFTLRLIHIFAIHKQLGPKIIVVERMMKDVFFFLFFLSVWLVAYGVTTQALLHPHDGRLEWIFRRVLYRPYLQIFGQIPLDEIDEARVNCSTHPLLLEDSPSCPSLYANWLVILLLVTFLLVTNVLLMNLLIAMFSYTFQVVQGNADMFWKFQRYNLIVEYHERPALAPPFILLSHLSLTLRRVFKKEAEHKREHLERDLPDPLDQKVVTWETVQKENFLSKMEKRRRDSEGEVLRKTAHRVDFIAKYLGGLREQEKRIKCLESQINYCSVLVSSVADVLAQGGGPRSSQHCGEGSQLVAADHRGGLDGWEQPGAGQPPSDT
Method: as §1, §2

mice = experiment: Taste aversion (lick) assay in mice; assay type: in vivo, mouse
Method: In this assay, the ability of identified lower alkyl phenols to evoke taste aversion in mice was measured. Mice were exposed to increasing concentrations of lower alkyl phenols.

[4] = hTRPA1 HEK293 cells, increase in fluorescence of membrane potential dye
[5] = HEK293 cells stably transfected with hTRPA1, FMP dye, FLIPR

T1 sequence (O75762 whole entry): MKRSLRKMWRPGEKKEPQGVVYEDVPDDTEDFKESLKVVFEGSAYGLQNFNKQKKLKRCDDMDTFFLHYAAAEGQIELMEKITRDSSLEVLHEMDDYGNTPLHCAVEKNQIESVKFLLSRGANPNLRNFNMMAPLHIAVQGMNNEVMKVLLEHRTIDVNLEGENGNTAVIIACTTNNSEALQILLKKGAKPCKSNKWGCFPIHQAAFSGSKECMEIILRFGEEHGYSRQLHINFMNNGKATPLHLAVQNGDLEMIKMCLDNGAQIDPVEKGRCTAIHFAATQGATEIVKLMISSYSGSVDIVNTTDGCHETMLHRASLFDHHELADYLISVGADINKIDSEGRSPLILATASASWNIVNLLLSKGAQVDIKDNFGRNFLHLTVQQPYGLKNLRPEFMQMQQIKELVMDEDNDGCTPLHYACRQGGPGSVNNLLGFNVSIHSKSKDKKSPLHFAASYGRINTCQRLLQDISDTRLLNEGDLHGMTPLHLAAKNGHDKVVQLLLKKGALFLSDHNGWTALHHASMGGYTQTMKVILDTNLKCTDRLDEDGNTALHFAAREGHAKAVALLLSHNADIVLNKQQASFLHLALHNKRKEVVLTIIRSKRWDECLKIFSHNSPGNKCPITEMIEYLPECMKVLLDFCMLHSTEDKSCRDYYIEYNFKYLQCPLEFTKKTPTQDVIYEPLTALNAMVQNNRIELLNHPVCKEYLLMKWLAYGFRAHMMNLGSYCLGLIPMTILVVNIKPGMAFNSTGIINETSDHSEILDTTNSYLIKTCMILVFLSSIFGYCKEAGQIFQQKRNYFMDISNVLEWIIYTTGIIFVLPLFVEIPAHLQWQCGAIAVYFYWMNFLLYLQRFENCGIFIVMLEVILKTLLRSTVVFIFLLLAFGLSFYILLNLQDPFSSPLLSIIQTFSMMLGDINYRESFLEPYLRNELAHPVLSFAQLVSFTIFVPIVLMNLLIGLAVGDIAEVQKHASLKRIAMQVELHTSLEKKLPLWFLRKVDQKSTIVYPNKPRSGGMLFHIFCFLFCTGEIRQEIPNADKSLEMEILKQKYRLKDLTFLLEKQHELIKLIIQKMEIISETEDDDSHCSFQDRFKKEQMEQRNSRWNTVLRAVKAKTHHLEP
T3 sequence (Q8TD43 whole entry): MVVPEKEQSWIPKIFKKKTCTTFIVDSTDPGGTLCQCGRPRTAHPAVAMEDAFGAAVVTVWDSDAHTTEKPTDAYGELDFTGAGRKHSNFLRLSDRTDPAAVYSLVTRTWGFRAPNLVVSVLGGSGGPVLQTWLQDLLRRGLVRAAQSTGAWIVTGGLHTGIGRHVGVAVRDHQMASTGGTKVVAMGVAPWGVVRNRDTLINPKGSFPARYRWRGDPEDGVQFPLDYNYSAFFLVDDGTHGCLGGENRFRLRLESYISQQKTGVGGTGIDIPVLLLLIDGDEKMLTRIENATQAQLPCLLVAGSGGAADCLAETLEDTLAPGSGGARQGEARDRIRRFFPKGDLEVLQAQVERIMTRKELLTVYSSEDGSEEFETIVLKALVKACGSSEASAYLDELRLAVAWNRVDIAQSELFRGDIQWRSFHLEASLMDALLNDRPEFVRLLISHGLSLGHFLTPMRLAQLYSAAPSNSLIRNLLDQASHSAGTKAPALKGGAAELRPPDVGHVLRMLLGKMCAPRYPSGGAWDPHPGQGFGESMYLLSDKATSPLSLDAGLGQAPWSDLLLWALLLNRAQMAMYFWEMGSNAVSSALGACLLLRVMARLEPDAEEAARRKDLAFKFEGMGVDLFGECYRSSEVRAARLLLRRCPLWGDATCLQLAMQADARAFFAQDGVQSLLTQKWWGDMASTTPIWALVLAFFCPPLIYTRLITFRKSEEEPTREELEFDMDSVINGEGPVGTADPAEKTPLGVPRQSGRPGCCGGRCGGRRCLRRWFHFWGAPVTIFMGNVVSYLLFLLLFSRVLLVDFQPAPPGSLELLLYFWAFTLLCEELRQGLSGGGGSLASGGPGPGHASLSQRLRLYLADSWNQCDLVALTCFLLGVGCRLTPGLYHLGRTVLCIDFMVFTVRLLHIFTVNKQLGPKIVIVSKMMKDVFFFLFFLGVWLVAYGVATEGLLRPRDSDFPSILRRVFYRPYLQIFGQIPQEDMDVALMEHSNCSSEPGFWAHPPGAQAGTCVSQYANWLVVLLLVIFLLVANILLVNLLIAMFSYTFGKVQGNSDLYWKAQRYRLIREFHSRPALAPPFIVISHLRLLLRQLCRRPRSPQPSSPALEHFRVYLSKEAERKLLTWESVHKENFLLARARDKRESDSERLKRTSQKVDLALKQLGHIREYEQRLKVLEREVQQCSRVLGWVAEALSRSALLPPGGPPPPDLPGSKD
T2 sequence (Q8NER1 whole entry): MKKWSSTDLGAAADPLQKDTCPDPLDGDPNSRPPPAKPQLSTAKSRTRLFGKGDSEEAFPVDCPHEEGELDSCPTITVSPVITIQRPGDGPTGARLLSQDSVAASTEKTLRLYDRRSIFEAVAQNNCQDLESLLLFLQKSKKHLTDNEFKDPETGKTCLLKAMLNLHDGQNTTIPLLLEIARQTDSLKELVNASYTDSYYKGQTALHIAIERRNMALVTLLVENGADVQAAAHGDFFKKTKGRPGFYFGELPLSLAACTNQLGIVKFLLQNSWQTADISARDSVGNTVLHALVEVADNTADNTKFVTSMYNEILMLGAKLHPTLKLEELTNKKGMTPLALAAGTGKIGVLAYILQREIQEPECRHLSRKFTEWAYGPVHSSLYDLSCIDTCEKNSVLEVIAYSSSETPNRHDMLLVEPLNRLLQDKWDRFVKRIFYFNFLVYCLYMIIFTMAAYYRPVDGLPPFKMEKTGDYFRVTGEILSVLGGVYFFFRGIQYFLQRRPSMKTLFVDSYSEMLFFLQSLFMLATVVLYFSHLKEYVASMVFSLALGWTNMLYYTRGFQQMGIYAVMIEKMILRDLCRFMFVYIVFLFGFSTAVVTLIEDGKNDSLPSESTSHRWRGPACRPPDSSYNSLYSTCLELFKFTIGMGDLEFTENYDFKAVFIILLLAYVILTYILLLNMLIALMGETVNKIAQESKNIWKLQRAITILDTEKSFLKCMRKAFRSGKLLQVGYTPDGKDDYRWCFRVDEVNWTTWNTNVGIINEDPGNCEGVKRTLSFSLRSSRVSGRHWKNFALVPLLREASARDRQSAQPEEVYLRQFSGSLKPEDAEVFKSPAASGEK

Structure (SMILES): CC1(C(=O)O)CCC(C(=O)O)C1(C)C (stereo not shown) [camphoric acid]
TRPA1 activation / agonist activity (in words) (hTRPA1 [1]; [4]): are TRPA1 agonists; also recorded: have agonist activity
inhibition of thymol activated TRPA1 (in words) (hTRPA1 [2]): do not act as agonists of thymol activation of TRPA1

EC50 (hTRPA1 [1]; TRPA1 HEK293 cells, FIGS. 8C and 8D, read-out: EC50 of agonist response in TRPA1): ~300 µM
Structure (SMILES): CC12CCC(C(=O)C1=O)C2(C)C (stereo not shown) [camphorquinone]
TRPA1 activation / agonist activity (in words) (hTRPA1 [1]; [4]): triggers an agonist response; also recorded: are TRPA1 agonists; also recorded: have agonist activity
inhibition of thymol activated TRPA1 (in words) (hTRPA1 [2]): do not act as agonists of thymol activation of TRPA1
effect on subsequent thymol and cinnamaldehyde responses (in words) (hTRPA1 [2]; TRPA1 transfected HEK293 cells, compound first, then agonist): desensitizes thymol and cinnamaldehyde responses

Structure (SMILES): CC1(C)C2CCC1(CS(N)(=O)=O)C(=O)C2 (stereo not shown) [camphorsufomamide]
TRPA1 activation / agonist activity (in words) (hTRPA1 [1]; [4]): have agonist activity
inhibition of thymol activated TRPA1 (in words) (hTRPA1 [2]): do not act as agonists of thymol activation of TRPA1

Structure (SMILES): O=CC=Cc1ccccc1 [cinnamaldehyde]
EC50 (hTRPA1 [1]; [5]): 7 µM
response of parental HEK293 cells (in words) (parental HEK293 cells): no change in activation
fluorescence response of cells transfected with hTRPA1 siRNA versus GAPDH or negative siRNA control (in words) (hTRPA1 [3]): did not increase as much as

Structure (SMILES): C=C(C)[C@H]1CC=C(C)CC1 [limonene]
TRPA1 activation / agonist activity (in words) (hTRPA1 [1]; [4]): are TRPA1 agonists; also recorded: have agonist activity
inhibition of thymol activated TRPA1 (in words) (hTRPA1 [2]): do not act as agonists of thymol activation of TRPA1

Structure (SMILES): Cc1ccccc1O [o-Cresol]
EC50 (hTRPA1 [1]; [5]): 327 ± 132 µM
TRPA1 activation / agonist activity (in words) (hTRPA1 [1]; [4]): generated an increase in relative fluorescence
response of parental HEK293 cells (in words) (parental HEK293 cells): no response
response of cells expressing hTRPV1 (in words) (hTRPV1; HEK293, increasing concentrations, FIG. 6): did not generate the same increase in relative fluorescence
response of cells expressing hTRPM4B (in words) (hTRPM4B; CHO, increasing concentrations, FIG. 6): did not generate the same increase in relative fluorescence
response of cells expressing hTRPM5 (in words) (hTRPM5; increasing concentrations, FIG. 6): did not generate the same increase in relative fluorescence
taste aversion, licks/trial (in words) (mice; mice, increasing concentrations): a decrease in licks/trial

Structure (SMILES): Oc1ccccc1 [phenol]
TRPA1 activation / agonist activity (in words) (hTRPA1 [1]): did not generate the same increase in relative fluorescence
response of cells expressing hTRPV1 (in words) (hTRPV1): generated an increase in relative fluorescence
response of cells expressing hTRPM4B (in words) (hTRPM4B): did not generate the same increase in relative fluorescence
response of cells expressing hTRPM5 (in words) (hTRPM5): did not generate the same increase in relative fluorescence
taste aversion, licks/trial (in words) (mice; mouse, in vivo): a decrease in licks/trial
